# From patent US9745328B2, “Flap modulators” (JANSSEN PHARMACEUTICA NV, priority 2013, dated 2017)
# Where a name gives a salt, the structure may show the parent alone.
# Target: human FLAP (Homo sapiens (Human), UniProt P20292)
# Assay: FLAP binding assay (HTRF format)
# Conditions: Table 6 (additional runs), human FLAP wild type
# Experimental: The ability of the compounds of the present invention to treat a FLAP-mediated disease and/or disorder, or associated symptoms or complications thereof, was determined using the following procedures. Binding assay data represent the average value obtained from two different assay plates, with samples run in duplicate on each plate. Human whole blood assay data represent a single replicate on an assay plate using whole blood from at least one healthy donor.
# Data are expressed as a HTRF ratio.
# Sequence of human FLAP (P20292 whole entry): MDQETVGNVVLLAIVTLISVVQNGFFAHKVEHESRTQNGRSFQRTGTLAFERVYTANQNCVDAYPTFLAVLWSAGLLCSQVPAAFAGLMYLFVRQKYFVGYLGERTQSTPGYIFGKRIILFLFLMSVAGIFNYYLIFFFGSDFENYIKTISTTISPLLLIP
row,Ki,Compound
1,323 nM,"Nc1ncc(-c2ccc(-c3ccccc3S(=O)(=O)N3CC4(COC4)C3)cc2F)cn1 [Example 312, 5-(2′-(2-oxa-6-azaspiro[3.3]heptan-6-ylsulfonyl)-3-fluoro-[1,1′-biphenyl]-4-yl)pyrimidin-2-amine]"
2,0.8 nM,"CC(C)(CO)NS(=O)(=O)c1ccccc1-c1ccc(-c2cnc(N)cn2)c(F)c1 [Example 100, 4′-(5-Aminopyrazin-2-yl)-3′-fluoro-N-(2-hydroxy-1,1-dimethylethyl)biphenyl-2-sulfonamide]"
3,0.4 nM,"CNS(=O)(=O)c1cc(C(F)(F)F)ccc1-c1ccc(-c2cnc(N)cn2)c(F)c1 [Example 208, 4′-(5-Aminopyrazin-2-yl)-3′-fluoro-N-methyl-4-(trifluoromethyl)biphenyl-2-sulfonamide]"
4,10.7 nM,"CC(=O)NC1CCN(S(=O)(=O)c2ccccc2-c2ccc(-c3cnc(N)cn3)c(F)c2)CC1 [Example 75, N-(1-{[4′-(5-Aminopyrazin-2′yl)-3′-fluorobiphenyl-2-yl]sulfonyl}piperidin-4-yl)acetamide]"
5,10.2 nM,"CN(C)S(=O)(=O)c1ccccc1-c1ccc(-c2cnc(N)cn2)c(F)c1 [Example 42, 4′-(5-Aminopyrazin-2-yl)-3′-fluoro-N,N-dimethylbiphenyl-2-sulfonamide]"
6,0.5 nM,Nc1cnc(-c2ccc(-c3ccccc3S(=O)(=O)N3CCN(c4ncccn4)CC3)cc2F)cn1 [Example 177]
7,2.2 nM,Nc1cnc(-c2ccc(-c3ccccc3S(=O)(=O)N[C@@H](c3ccccc3)C(F)(F)F)cc2F)cn1 [Example 19]
8,1.1 nM,"Nc1cnc(-c2ccc(-c3ccccc3S(=O)(=O)N[C@H]3CCCC[C@@H]3O)cc2F)cn1 (racemic) [Example 120, racemic (trans)-4′-(5-Aminopyrazin-2-yl)-3′-fluoro-N-(2-hydroxycyclohexyl)biphenyl-2-sulfonamide]"
9,670 nM,"C[C@H](O)CNS(=O)(=O)Cc1ccccc1-c1ccc(-c2cnc(N)cn2)c(F)c1 [Example 227, (S)-1-[4′-(5-Aminopyrazin-2-yl)-3′-fluorobiphenyl-2-yl]-N-[(2S)-2-hydroxypropyl]methanesulfonamide hydrochloride]"
10,8.1 nM,"CC(CO)(CO)NS(=O)(=O)c1ccccc1-c1ccc(-c2cnc(N)nc2)c(F)c1 [Example 255, 4′-(2-Aminopyrimidin-5-yl)-3′-fluoro-N-[2-hydroxy-1-(hydroxymethyl)-1-methylethyl]biphenyl-2-sulfonamide]"
11,2.4 nM,"Nc1cnc(-c2ccc(-c3ccccc3Sc3cc(N)ncn3)cc2F)cn1 [Example 215, 6-{[4′-(5-Aminopyrazin-2-yl)-3′-fluorobiphenyl-2-yl]sulfanyl}pyrimidin-4-amine hydrochloride]"
12,0.6 nM,"C[C@H](CO)NS(=O)(=O)c1ccccc1-c1ccc(-c2cnc3[nH]ccc3c2)c(F)c1 [Example 363, 3′-Fluoro-N-[(1R)-2-hydroxy-1-methylethyl]-4′-(1H-pyrrolo[2,3-b]pyridin-5-yl)biphenyl-2-sulfonamide]"

# The remaining lines, values behind:
row,Compound,Ki
1,"Nc1cnc(-c2ccc(-c3ccccc3S(=O)(=O)N3CCC(CCO)CC3)cc2F)cn1 [Example 69, 2-(1-{[4′-(5-Aminopyrazin-2-yl)-3′-fluorobiphenyl-2-yl]sulfonyl}piperidin-4-yl)ethanol]",0.9 nM
2,"CC(C)(C)NS(=O)(=O)c1ccccc1-c1ccc(-c2cnc3[nH]ccc3n2)c(F)c1 [Example 371, N-tert-Butyl-3′-fluoro-4′-(5H-pyrrolo[2,3-b]pyrazin-2-yl)biphenyl-2-sulfonamide]",0.7 nM
3,"CN(C)S(=O)(=O)c1ccccc1-c1ccc(-c2cnc3[nH]ccc3n2)c(F)c1 [Example 370, 3′-Fluoro-N,N-dimethyl-4′-(5H-pyrrolo[2,3-b]pyrazin-2-yl)biphenyl-2-sulfonamide]",1.9 nM
4,"Nc1cnc(-c2ccc(-c3ccccc3S(=O)(=O)N[C@@H]3c4ccccc4C[C@@H]3O)cc2F)cn1 [Example 161, 4′-(5-aminopyrazin-2-yl)-3′-fluoro-N-((1R,2S)-2-hydroxy-2,3-dihydro-1H-inden-1-yl)-[1,1′-biphenyl]-2-sulfonamide]",0.4 nM
5,Nc1cnc(-c2ccc(-c3ccccc3S(=O)(=O)NC3(CO)CCCC3)cc2F)cn1 [Example 179],0.4 nM
6,"Nc1cnc(-c2ccc(-c3ccccc3S(=O)(=O)N3CCC(F)(F)C3)cc2F)cn1 [Example 51, 5-{2′-[(3,3-Difluoropyrrolidin-1-yl)sulfonyl]-3-fluorobiphenyl-4-yl}pyrazin-2-amine]",3.8 nM
7,"COC[C@H](C)NS(=O)(=O)c1ccccc1-c1ccc(-c2cnc(N)cn2)c(F)c1 [Example 175, (S)-4′-(5-aminopyrazin-2-yl)-3′-fluoro-N-(1-methoxypropan-2-yl)-[1,1′-biphenyl]-2-sulfonamide]",1.4 nM
8,"CS(=O)(=O)Nc1ccccc1-c1ccc(-c2cnc(N)cn2)c(F)c1 [Example 2, N-[4′-(5-Aminopyrazin-2-yl)-3′-fluorobiphenyl-2-yl]methanesulfonamide]",178 nM
9,"Nc1cnc(-c2ccc(-c3ccccc3S(=O)(=O)NCC3CC3)cc2F)cn1 [Example 90, 4′-(5-Aminopyrazin-2-yl)-N-(cyclopropylmethyl)-3′-fluorobiphenyl-2-sulfonamide]",0.9 nM
10,"Nc1cnc(-c2ccc(-c3ccccc3SCCNC(=O)c3ccccc3)cc2F)cn1 [Example 204, N-(2-{[4′-(5-Aminopyrazin-2-yl)-3′-fluorobiphenyl-2-yl]sulfanyl}ethyl)benzamide]",4.5 nM
11,"CC[C@H](CO)NS(=O)(=O)c1ccccc1-c1ccc(-c2cnc(N)cn2)c(F)c1 [Example 86, 4′-(5-Aminopyrazin-2-yl)-3′-fluoro-N-[(1R)-1-(hydroxymethyl)propyl]biphenyl-2-sulfonamide]",2.6 nM
12,"Nc1cnc(-c2ccc(-c3ccccc3S(=O)(=O)N3CCCC(F)(F)C3)cc2F)cn1 [Example 50, 5-{2′-[(3,3-Difluoropiperidin-1-yl)sulfonyl)-3-fluorobiphenyl-4-yl}pyrazin-2-amine]",1.3 nM
13,"O=S1(=O)CCN(S(=O)(=O)c2ccccc2-c2ccc(-c3cnc4[nH]ccc4n3)c(F)c2)CC1 [Example 382, 2-{2′-[(1,1-Dioxidothiomorpholin-4-yl)sulfonyl]-3-fluorobiphenyl-4-yl}-5H-pyrrolo[2,3-b]pyrazine]",0.5 nM
14,"Nc1cnc(-c2ccc(-c3ccccc3S(=O)(=O)N3CCN(c4cnccn4)CC3)cc2F)cn1 [Example 176, 5-{3-Fluoro-2′-[(4-pyrazin-2-ylpiperazin-1-yl)sulfonyl]biphenyl-4-yl}pyrazin-2-amine]",0.5 nM
15,O=S1(=O)CCN(S(=O)(=O)c2ccccc2-c2ccc(-c3cnc4c(c3)OCCN4)c(F)c2)CC1 [Example 392],0.9 nM

# Same assay, conditions: human FLAP wild type, Table 6 (additional runs)
row,Ki,Compound
1,359 nM,"CC(C)(C)NC(=O)c1ccccc1-c1ccc(-c2cnc(N)cn2)c(F)c1 [Example 501, 4′-(5-Aminopyrazin-2-yl)-N-tert-butyl-3′-fluorobiphenyl-2-carboxamide]"
2,1300 nM,"C[C@H]1COCCN1C(=O)c1ccccc1-c1ccc(-c2cnc(N)cn2)c(F)c1 [Example 774, 5-(3-Fluoro-2′-{[(3S)-3-methylmorpholin-4-yl]carbonyl}biphenyl-4-yl)pyrazin-2-amine]"
3,2.7 nM,"CNS(=O)(=O)c1ccccc1-c1ccc(-c2cnc3[nH]cc(CO)c3c2)c(F)c1 [Example 457, 3′-Fluoro-4′-[3-(hydroxymethyl)-1H-pyrrolo[2,3-b]pyridin-5-yl]-N-methylbiphenyl-2-sulfonamide]"
4,1.7 nM,"CC(C)(C)NS(=O)(=O)c1ccccc1-c1ccc(-c2cnc(N)cn2)cc1 [Example 571, 4′-(5-Aminopyrazin-2-yl)-N-tert-butylbiphenyl-2-sulfonamide]"
5,0.7 nM,"CC(C)(C)NS(=O)(=O)c1ccccc1-c1ccc(-c2nnc(N)s2)c(F)c1 [Example 438, 4′-(5-amino-1,3,4-thiadiazol-2-yl)-N-(tert-butyl)-3′-fluoro-[1,1′-biphenyl]-2-sulfonamide]"
6,5.5 nM,"Nc1cnc(-c2ccc(-c3ccccc3Oc3nccc(N)n3)cc2F)cn1 [Example 528, 2-{[4′-(5-Aminopyrazin-2-yl)-3′-fluorobiphenyl-2-yl]oxy}pyrimidin-4-amine]"

# The next lines start with the compound.
row,Compound,Ki
1,"Nc1cnc(-c2ccc(-c3ccccc3C(F)(F)F)cc2F)cn1 [Example 472, 5-[3-Fluoro-2′-(trifluoromethyl)biphenyl-4-yl]pyrazin-2-amine]",136 nM
2,"CC(C)(C)NS(=O)(=O)c1ccccc1-c1ccc(-c2cc(N)c3[nH]ccc3c2)c(F)c1 [Example 458, 4′-(7-Amino-1H-indol-5-yl)-N-tert-butyl-3′-fluorobiphenyl-2-sulfonamide]",4.2 nM
3,"Nc1cc(-c2ccc(-c3ccccc3S(=O)(=O)NC3(CO)CCCC3)cc2F)cc2cc[nH]c12 [Example 456, 4′-(7-Amino-1H-indol-5-yl)-3′-fluoro-N-[1-(hydroxymethyl)cyclopentyl]biphenyl-2-sulfonamide]",2.6 nM
4,"Cc1cc(N)nc(Oc2ccccc2-c2ccc(-c3cnc(N)cn3)c(F)c2)n1 [Example 616, 2-{[4′-(5-Aminopyrazin-2-yl)-3′-fluorobiphenyl-2-yl]oxy}-6-methylpyrimidin-4-amine]",16.4 nM
5,"Nc1cnc(-c2ccc(-c3ccccc3Oc3ncccn3)cc2F)cn1 [Example 526, 5-[3-Fluoro-2′-(pyrimidin-2-yloxy)biphenyl-4-yl]pyrazin-2-amine]",8.3 nM
6,"CC(C)(C)NS(=O)(=O)c1ccccc1-c1ccc(-c2cnc3ncccc3c2)c(F)c1 [Example 419, N-tert-Butyl-3′-fluoro-4′-(1,8-naphthyridin-3-yl)biphenyl-2-sulfonamide]",~1370 nM
7,"CC(C)(C)NS(=O)(=O)c1ccccc1-c1ccc(-c2cnc3cc[nH]c3c2)c(F)c1 [Example 425, N-tert-Butyl-3′-fluoro-4′-(1H-pyrrolo[3,2-b]pyridin-6-yl)biphenyl-2-sulfonamide]",2.3 nM

# Same assay, conditions: human FLAP wild type, a calculated value of 0.000 indicates Ki less than 1 nM
row,Ki,Compound
1,< 1 nM,"CNS(=O)(=O)c1cc(C(F)(F)F)ccc1-c1ccc(-c2cnc(N)cn2)c(F)c1 [Example 208, 4′-(5-Aminopyrazin-2-yl)-3′-fluoro-N-methyl-4-(trifluoromethyl)biphenyl-2-sulfonamide]"
2,< 1 nM,Nc1cnc(-c2ccc(-c3ccccc3S(=O)(=O)N3CCN(c4ncccn4)CC3)cc2F)cn1 [Example 177]

# More lines, now with the values behind:
row,Compound,Ki
1,"Nc1cnc(-c2ccc(-c3ccccc3S(=O)(=O)N[C@@H]3c4ccccc4C[C@@H]3O)cc2F)cn1 [Example 161, 4′-(5-aminopyrazin-2-yl)-3′-fluoro-N-((1R,2S)-2-hydroxy-2,3-dihydro-1H-inden-1-yl)-[1,1′-biphenyl]-2-sulfonamide]",< 1 nM
2,Nc1cnc(-c2ccc(-c3ccccc3S(=O)(=O)NC3(CO)CCCC3)cc2F)cn1 [Example 179],< 1 nM
3,"O=S1(=O)CCN(S(=O)(=O)c2ccccc2-c2ccc(-c3cnc4[nH]ccc4n3)c(F)c2)CC1 [Example 382, 2-{2′-[(1,1-Dioxidothiomorpholin-4-yl)sulfonyl]-3-fluorobiphenyl-4-yl}-5H-pyrrolo[2,3-b]pyrazine]",< 1 nM
4,"Nc1cnc(-c2ccc(-c3ccccc3S(=O)(=O)N3CCN(c4cnccn4)CC3)cc2F)cn1 [Example 176, 5-{3-Fluoro-2′-[(4-pyrazin-2-ylpiperazin-1-yl)sulfonyl]biphenyl-4-yl}pyrazin-2-amine]",< 1 nM
